Experiments:
[1] = test system: incorporation of azido sugar onto proteins in COS-7 cells; experiment: Metabolic feeding and Staudinger ligation with biotin phosphine, streptavidin-HRP blot; assay type: cell-based, African green monkey; conditions: 50 μM, 24 h
Experimental: (A) Structures of the molecules used or generated during the chemoselective ligation study (X═O or S as indicated, R═H or Ac as indicated). (B) Western blots of COS-7 cell lysates administered specified agents at 50 μM for 24 h; vehicle only (C), Ac-GlcNAz or Ac-5SGlcNAz (41). Cells were harvested and then underwent the Staudinger ligation with biotin phosphine. Blots are probed with (from top to bottom) streptavidin-HRP, anti O-GlcNAc (CTD110.6) antibody and anti-actin antibody. (C) Western blot of immunoprecipitated nup62 from cell lysates following vehicle (C), 50 μM Ac-GlcNAz or Ac-5SGlcNAz (41) treatment for 24 h. Following immunoprecipitation, nup62 was incubated with buffer (−) or with BtGH84 (+) for 2 h to remove O-GlcNAc, and then underwent the Staudinger ligation with biotin phosphine. Blots are probed with streptavidin-HRP. […]
To probe the possibility that 5SGlcNAc is being incorporated onto proteins, we used a metabolic feeding and chemoselective ligation strategy using 2-azidoacetamido-2-deoxy-D-glucopyranose (GlcNAz), which can be assimilated by the HBP to form uridine diphospho-N-azidoacetylglucosamine (UDP-GlcNAz) and then be installed onto proteins as O-GlcNAz^9. […] Accordingly, we evaluated whether 2-azidoacetamido-2-deoxy-5-thio-D-glucopyranose (5SGlcNAz) is incorporated onto proteins to determine whether 5SGlcNAc might be transferred onto proteins in cells. […]

[2] = test system: O-GlcNAc levels in COS-7 cells; experiment: Western blot of O-GlcNAc levels (CTD110.6) in treated COS-7 cells; assay type: cell-based, African green monkey; conditions: 50 μM, 24 h
Experimental: Cell culture: Cells were grown in an incubator at 37° C. and 5% CO2 atmosphere. Media and serum were purchased from Invitrogen. COS-7 cells were cultured in Dulbecco's modified Eagle's medium (DMEM) with 5% fetal bovine serum (FBS), and were typically 80-100% confluent prior to experimentation. HepG2, SK-N-SH, and EMEG32^−/− cells were cultured in Dulbecco's modified Eagle's medium (DMEM) with 5% fetal bovine serum (FBS), CHO cells in DMEMF-12 with 5% FBS and PC12 cells in DMEM with 5% FBS and 5% horse serum. Prior to experimentation, PC12 cells were plated at a density of 3-4×10^5 cells10 cm plate, which had been pre-treated with 5 μgcm^2 rat tail collagen (BD Biosciences). Cells were differentiated in DMEM containing 1% horse serum, in the presence of 2.5S mouse nerve growth factor (Chemicon) at a final concentration of 25 ng mL^−1, for 4-5 days prior to treatment. Other cell lines were 80-100% confluent prior to treatment. Following treatment with (Ac-)5SGlcNAc, using various conditions, cells were washed gently with PBS, lysed in SDS loading buffer and boiled for 10 minutes. Mouse hybridoma cells (obtained from the Developmental Studies Hybridoma Bank; antibody E7 for (:1-tubulin) were cultured in RPMI40 with 10% FBS. Prior to treatment with Ac-5SGlcNAc, hybridoma cells were cultured for 2 days in RPMI40 with 5% FBS, and during treatment in RPMI40 with no serum. Cells were collected, centrifuged (800 x g, 5 min) and the supernatant removed. Cells were washed with PBS, centrifuged, the pellet resuspended in SDS loading buffer and boiled. The supernatant after centrifugation, which contained the IgG antibody produced by the cells, was used for immunoprecipitation (see below for details).
Westernlectin blots: Samples were run on 10% SDS polyacrylamide gels and transferred onto nitrocellulose membranes (Biorad). Membranes were blocked for 1 h in PBS containing 0.1% Tween-20 (PBS-T) containing 1% (unless otherwise stated) bovine serum albumin (BSA), and probed with the appropriate primary antibody or lectin in 1% BSA in PBS-T overnight at 4° C. Blots were washed for 1 hr with PBS-T, and blocked for a further 30 min with 1% BSA in PBS-T at room temperature. They were then probed with the appropriate horseradish peroxidise (HRP)-conjugated secondary antibodyprobe in 1% BSA in PBS-T at room temperature for 1 h, followed by washing in PBS-T for 1 h. Blots were developed with SuperSignal West Pico Chemiluminescent Substrate (Pierce) and exposed to CL-XPosure film (Pierce). Densitometry was performed using ImageQuant 5.2 (Molecular Dynamics), and fits to the data were made using GRAFIT^41.
Antibodieslectins: O-GlcNAc levels were assessed primarily using CTD110.6 (Covance), but RL2 (Abcam) and HGAC85 (Abcam) were also tested. Actin was probed using JLA20 (Developmental Studies Hybridoma Bank). OGA levels were assessed using a polyclonal anti-OGA antibody which was a kind gift from Dr. Gerald Hart and OGT levels using H-300 (Santa Cruz Biotechnology). nup62 was probed using mAb 414 (Covance). Secondary antibodies employed (HRP-conjugated goat anti-mouse IgM, goat anti-mouse IgG, goat anti-chicken IgY and goat anti-rabbit IgG) were obtained from Santa Cruz Biotechnology. Biotinylated-ConA, PHA-L, SNA and MAA were purchased from EY Laboratories, and biotinylated-GNA from Vector Laboratories. HRP-conjugated streptavidin (Pierce) was used as a probe for the biotinylated lectins.
Analogues (9, 10, 17-41) were tested in COS-7 cells, dosed at a final concentration of 50 μM in DMSO for 24 h. Following treatment, cells were washed with PBS, harvested into SDS-PAGE loading buffer and analyzed by western blot using standard procedures; blots were probed with the anti-O-GlcNAc antibody (CTD 110.6).

[3] = test system: EMEG32 heterozygous mouse embryonic fibroblast cells; experiment: Cell proliferation growth curves over 5 days and western blot, EMEG32 heterozygous fibroblasts; assay type: cell-based; conditions: EMEG32 heterozygotes, 50 μM, 5 days
Experimental: (A) Cell proliferation curves over the course of 5 days for CHO cells following no (circles), 50 μM Ac-GlcNAc (squares) or 50 μM Ac-5SGlcNAc (triangles) treatment. The error bars indicate the deviation from the mean for triplicate measurements. […] Upper panel, probed with anti-O-GlcNAc antibody (CTD110.6); lower panel, probed with anti-actin antibody. (B) Cell proliferation curves over the course of 5 days for EMEG heterozygous mouse embryonic fibroblast cells following no (circles), 50 μM Ac-GlcNAc (squares) or 50 μM Ac-5SGlcNAc (triangles) treatment. The error bars indicate the deviation from the mean for triplicate measurements. […] Upper panel, probed with anti-O-GlcNAc antibody (CTD110.6); lower panel, probed with anti-actin antibody. (C) Western blots of CHO cell lysates following no (C) or Ac-5SGlcNAc administration at 50 μM for 4 days. Probed with (from top to bottom) anti-Spl antibody, anti O-GlcNAc (CTD110.6) antibody and anti-actin antibody. Full blot of the anti-Sp 1 is shown in panel (d). (D) Western blots of CHO cell lysates following no (C) or Ac-5SGlcNAc administration at 50 μM for 4 days. The full blot probed with anti-Spl antibody is shown. (E) Western blots of COS-7 cell lysates following no (C) or 50 μM Ac-5SGlcNAc treatment for 24 h. Following treatment, the media was replaced with no inhibitor, and cells were harvested at the time points indicated (between 0 and 24 h). Upper panel, probed with anti-O-GlcNAc antibody (CTD110.6); lower panel, probed with anti-actin antibody.
Cellular responses to Ac-5SGlcNAc (9) treatment and consequent decreases in O-GlcNAc levels were evaluated. […] We quantitatively evaluated cell proliferation and established growth curves over the course of 5 days in both CHO and EMEG32 heterozygous mouse embryonic fibroblast cells treated with 50 μM Ac-5SGlcNAc (9), 50 μM Ac-GlcNAc (G), or vehicle (FIGS. 5A-B).

[4] = test system: O-GlcNAc levels in mice tissues; experiment: O-GlcNAc levels in mouse tissues after intraperitoneal dosing; assay type: in vivo; conditions: 300 mg/kg intraperitoneally, 16 hours
Experimental: Ac-5SGlcNAc 9 and the deprotected analogue with the hexyl substituent at the C2 position 28 have been analyzed for effectiveness at decreasing O-GlcNAc levels in mice. Pilot studies were conducted with mice dosed in triplicate with either compound or vehicle alone. Compounds were dosed at 300 mg/kg intraperitoneally using 75% DMSO as vehicle for delivery of 9 and phosphate-buffered saline (PBS) for delivery of 28. Mice were euthanized using a CO2 chamber after 16 hours exposure to either compound, and tissues (liver, lung, heart, kidney, spleen, pancreas, brain, blood, fat and muscle) harvested and flash frozen in liquid nitrogen. Frozen tissues were ground using a pestle and mortar, and resuspended in cell lysis buffer (50 mM NaH2PO4, 150 mM NaCl, 0.1% SDS, 1% NP-40, 0.25% sodium deoxycholate, 1 mM EDTA, 30 mM sodium fluoride, 30 mM β-glycerophosphate, 5 mM sodium pyrophosphate, 1 mM Thiamet-G, protease inhibitor cocktail (Roche)) at a concentration of 100 mg tissue1 mL buffer prior to homogenization. Homogenates were centrifuged at 13,000 rpm for 20 min, the supernatant removed, added to 2×SDS-PAGE loading buffer and boiled for […]. SDS-PAGE and western blots were performed using standard procedures. Blots were probed using anti-O-GlcNAc antibody (CTD110.6, Santa Cruz Biotechnology) and anti-actin antibody for a loading control.

In the case of CC(=O)OC[C@H]1O[C@H](OC(C)=O)[C@H](NC(=O)CN=[N+]=[N-])[C@@H](OC(C)=O)[C@@H]1OC(C)=O [Ac-GlcNAz, 1,3,4,6-tetra-O-acetyl-2-azidoacetamido-2-deoxy-ot-D-glucopyranose, reference compound], the “streptavidin signal after Staudinger ligation (accumulation of azido sugar on proteins)” value [1] is reported as “Only proteins from cells treated with Ac-GlcNAz revealed any signal” and the “effect on O-GlcNAc levels at single dose” value [2] is reported as “only 5SGlcNAz decreased O-GlcNAc levels”.

In the case of CC(=O)N[C@H]1[C@H](OC(C)=O)O[C@H](COC(C)=O)[C@@H](OC(C)=O)[C@@H]1OC(C)=O [Ac-GlcNAc, reference compound], the growth rate [3] is reported as “indistinguishable but were both lower than vehicle treated cells”.

In the case of “2-azidoacetamido-2-deoxy-5-thio-D-glucopyranose [Compound 5SGlcNAz]”, the “streptavidin signal after Staudinger ligation (accumulation of azido sugar on proteins)” value [1] is reported as “does not accumulate on proteins to any measurable level”.

In the case of CCCCCC(=O)NC1C(O)SC(CO)C(O)C1O [Compound 28, N-Hexonoyl-a-D-5-thio-glucosamine], the “effect on O-GlcNAc levels at single dose” value [2] is reported as “decreased O-GlcNAc levels in cells”, the “extent of decrease of O-GlcNAc levels relative to parent compound 9” value [2] is reported as “comparable extent to the parent compound” and the “O-GlcNAc levels in tissues” value [4] is reported as “effective at decreasing O-GlcNAc levels during the 16 hour dosing period in the liver, lung, heart, kidney, spleen, pancreas, fat and muscle”.

Reference: US20150259371A1, “METHODS AND COMPOUNDS FOR INHIBITING GLYCOSYLTRANSFERASES” (SIMON FRASER UNIVERSITY, priority 2010, published 2015)
